Measured values taken from paper PMC8268022, “Loureirin B Exerts its Immunosuppressive Effects by Inhibiting STIM1/Orai1 and KV1.3 Channels” (Frontiers in Pharmacology, 2021).

Biological target: T1, Orai1 (STIM1/Orai1 channel, CRAC channel) (Homo sapiens, UniProt Q96D31)
T1 construct: with STIM1
Assay: whole-cell patch clamp of STIM1/Orai1 currents in transfected HEK293T cells
Assay type: cell-based

T1 sequence (Q96D31 whole entry): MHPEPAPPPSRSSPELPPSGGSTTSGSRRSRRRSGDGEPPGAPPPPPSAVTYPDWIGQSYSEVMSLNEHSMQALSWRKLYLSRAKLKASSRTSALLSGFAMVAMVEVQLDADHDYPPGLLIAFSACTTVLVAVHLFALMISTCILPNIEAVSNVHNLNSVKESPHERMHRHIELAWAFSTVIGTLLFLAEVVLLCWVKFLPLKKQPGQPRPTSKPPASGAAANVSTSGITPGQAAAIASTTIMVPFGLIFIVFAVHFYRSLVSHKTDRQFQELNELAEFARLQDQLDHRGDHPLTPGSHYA
T1 sequence (Q13586 23-685 partner): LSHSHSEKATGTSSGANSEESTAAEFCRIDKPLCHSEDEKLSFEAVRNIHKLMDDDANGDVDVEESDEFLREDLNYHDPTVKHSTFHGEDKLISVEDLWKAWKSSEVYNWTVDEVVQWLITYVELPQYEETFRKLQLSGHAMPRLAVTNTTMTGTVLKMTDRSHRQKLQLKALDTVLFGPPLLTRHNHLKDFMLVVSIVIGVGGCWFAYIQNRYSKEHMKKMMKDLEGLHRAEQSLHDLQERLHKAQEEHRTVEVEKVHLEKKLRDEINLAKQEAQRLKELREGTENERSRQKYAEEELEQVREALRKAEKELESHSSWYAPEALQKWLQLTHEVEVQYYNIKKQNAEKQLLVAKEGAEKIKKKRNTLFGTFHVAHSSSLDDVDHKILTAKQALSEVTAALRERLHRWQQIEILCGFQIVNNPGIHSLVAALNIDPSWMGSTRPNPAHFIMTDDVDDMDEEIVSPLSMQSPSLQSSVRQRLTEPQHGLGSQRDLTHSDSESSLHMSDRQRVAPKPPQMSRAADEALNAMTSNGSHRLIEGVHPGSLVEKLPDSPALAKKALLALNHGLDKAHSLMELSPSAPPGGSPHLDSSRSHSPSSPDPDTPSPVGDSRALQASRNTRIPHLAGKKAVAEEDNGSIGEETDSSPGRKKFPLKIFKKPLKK

Work on COc1cc(OC)c(CCC(=O)c2ccc(O)cc2)c(OC)c1 [LrB, Loureirin B] yielded an IC50 of 17.1 ± 2.17 µM.
